Source: paper PMC5739799 (Oncotarget, 2017)

Test: Steady-state plasma pharmacokinetics after oral dosing for 5 days
Format: in vivo, BALB/c nu/nu mice
Description: Pharmacokinetic studies were performed in 6–8-week-old female BALB/c nu/nu mice (Charles River, Sulzfeld, Germany). […] Parent compounds and metabolites M-2 and M-5 were analyzed in plasma samples using validated bioanalytical liquid chromatography-tandem mass spectrometry (LC-MS/MS) methods according to an experimental protocol described earlier. PK parameters, namely the AUC(0–24)ss and Cmax, were calculated from plasma concentrations using a non-compartmental analysis.

[1] = after oral regorafenib 10 mg/kg/day for 5 days, total = molar sum of regorafenib, M-2, M-5

| AUC(0–24)ss (percent of total) [1] | AUC(0–24)ss (percent of total) (after oral sorafenib tosylate 30 mg/kg/day for 5 days, total = molar sum of sorafenib and M-2) | SMILES |
| --- | --- | --- |
| 1% of total |  | NC(=O)c1cc(Oc2ccc(NC(=O)Nc3ccc(Cl)c(C(F)(F)F)c3)c(F)c2)cc[n+]1[O-] [M-5] |
| 9% of total | 1% of total | CNC(=O)c1cc(Oc2ccc(NC(=O)Nc3ccc(Cl)c(C(F)(F)F)c3)c(F)c2)cc[n+]1[O-] [M-2] |
